± gives the expanded uncertainty stated by the source.
Test: refractive index (other wavelength) (dimensionless); xn = mol fraction of the nth substance listed
Settings: 313.15 K, 101 kPa, Liquid, Standard Abbe refractometry

CC(C)OC(C)C [diisopropyl ether] + CO
refractive index
Settings	Wavelength=435.8 nm	Wavelength=486.1 nm	Wavelength=546.1 nm	Wavelength=587.6 nm
x2 = 0	–	1.36119 ± 0.00044	1.35842 ± 0.00044	1.357 ± 0.00044
x2 = 0.0423	–	1.36111 ± 0.00043	1.35837 ± 0.00043	1.35693 ± 0.00043
x2 = 0.0424	–	1.36115 ± 0.00043	1.35839 ± 0.00043	1.35696 ± 0.00043
x2 = 0.082	–	1.36108 ± 0.00042	1.35823 ± 0.00042	1.35691 ± 0.00042
x2 = 0.0822	–	1.36126 ± 0.00042	1.35853 ± 0.00042	1.3571 ± 0.00042
x2 = 0.1171	1.36445 ± 0.00041	1.36113 ± 0.00041	1.35838 ± 0.00041	1.35696 ± 0.00041
x2 = 0.1271	1.36445 ± 0.00041	1.36113 ± 0.00041	1.35841 ± 0.00041	1.35696 ± 0.00041
x2 = 0.1827	1.36423 ± 0.0004	1.36091 ± 0.0004	1.35818 ± 0.0004	1.35676 ± 0.0004
x2 = 0.2162	1.36405 ± 0.0004	1.36077 ± 0.0004	1.35802 ± 0.0004	1.35661 ± 0.0004
x2 = 0.251	1.36361 ± 0.00039	1.36031 ± 0.00039	1.35759 ± 0.00039	1.35617 ± 0.00039
x2 = 0.3298	1.36371 ± 0.00038	1.36044 ± 0.00038	1.3577 ± 0.00038	1.35627 ± 0.00038
x2 = 0.3577	1.36268 ± 0.00038	1.35958 ± 0.00038	1.35686 ± 0.00038	1.35545 ± 0.00038
x2 = 0.4497	1.36152 ± 0.00037	1.3583 ± 0.00037	1.35561 ± 0.00037	1.35419 ± 0.00037
x2 = 0.4525	1.36193 ± 0.00037	1.35868 ± 0.00037	1.35599 ± 0.00037	1.35459 ± 0.00037
x2 = 0.522	1.35976 ± 0.00035	1.35655 ± 0.00035	1.35386 ± 0.00035	1.35246 ± 0.00035
x2 = 0.5543	1.35887 ± 0.00035	1.35569 ± 0.00035	1.353 ± 0.00035	–
x2 = 0.609	1.35654 ± 0.00034	1.3534 ± 0.00034	1.35074 ± 0.00034	–
x2 = 0.6529	1.35496 ± 0.00034	1.35191 ± 0.00034	1.34921 ± 0.00034	–
x2 = 0.7504	1.35104 ± 0.00033	1.34795 ± 0.00033	1.34538 ± 0.00033	–
x2 = 0.804	1.34656 ± 0.00033	1.34353 ± 0.00033	1.341 ± 0.00033	–
x2 = 0.807	1.34668 ± 0.00033	1.34363 ± 0.00033	1.34112 ± 0.00033	–
x2 = 0.8727	1.34306 ± 0.00032	1.34009 ± 0.00032	1.33757 ± 0.00032	–
x2 = 0.9233	1.33508 ± 0.00033	1.33213 ± 0.00033	1.3297 ± 0.00033	–
x2 = 0.9253	1.33674 ± 0.00033	1.3338 ± 0.00033	1.33136 ± 0.00032	–
x2 = 0.9527	1.33377 ± 0.00032	1.33085 ± 0.00032	1.32843 ± 0.00032	–
x2 = 0.9773	1.3304 ± 0.00032	1.32749 ± 0.00032	1.32509 ± 0.00032	–
x2 = 0.989	1.32916 ± 0.00032	1.32628 ± 0.00032	1.32387 ± 0.00032	–
x2 = 0.9964	1.3282 ± 0.00032	1.32531 ± 0.00032	1.32292 ± 0.00032	–

From the NIST ThermoML archive (doi:10.1016/j.fluid.2014.09.014)
